Consider three compounds from US9737515B2, “Compositions and methods for inhibiting tumor growth” (Consejo Nacional De Investigaciones Cientificas Y Tecnicas …, priority 2015, dated 2017).

Test [1] has as its system MCF-7 Tet-Off/ACSL4 cells. Briefly: BrdU incorporation cell proliferation assay in MCF-7 Tet-Off/ACSL4 cells. In kind it is cell-based, human. The procedure:
(§1) MCF-7 Tet-Off empty vector and MCF-7 Tet-Off/ACSL4 cells were plated at a density of 4000 cells/well in 96-well plates with 10% FBS-supplemented D-MEM medium and allowed to adhere overnight at 37° C. in a humidified, 5% CO2 atmosphere. The medium was then changed to serum-free medium. After 24 h, the cells were switched to 10% FBS-supplemented D-MEM medium and incubated with rapamycin (10 nM) and/or rosiglitazone (75 μM) for 96 h. Subsequently, cell proliferation was measured by the bromo-deoxyuridine (BrdU) incorporation assay.
Following the same procedure as that described in Example 1 above, the cells were switched to 10% FBS-supplemented D-MEM medium and incubated with rosiglitazone (10 or 25 μM) and/or 4-hydroxytamoxifen (4-OHTAM, 2.5 or 5.0 μM). Both rosiglitazone and 4-hydroxytamoxifen were tested alone at each of the concentrations used, and in all the possible combinations with each other (see FIG. 6A).

Test [2] has as its system MCF-7 Tet-Off empty vector cells. Nature of the test: BrdU incorporation cell proliferation assay in MCF-7 Tet-Off empty vector cells. The following applies: Homo sapiens, MCF7, 96 h, vs control cells. Format: cell-based. As to the method: as §1
A general note: Incorporation of labelled thymidine or its analogues reports DNA synthesis.

As to `CN(CCOc1ccc(CC2SC(=O)NC2=O)cc1)c1ccccn1` (stereo not shown) [Rosiglitazone], the inhibition at 10 µM in test [1] (Homo sapiens, MCF7, 96 h, Rosiglitazone 10 μM) turned out to be 1.88%. For the same compound, in test [1] (Homo sapiens, MCF7, 96 h, Rosiglitazone 25 μM), the inhibition at 25 µM came out at 7.97%. The inhibition at 75 µM in test [1] (Homo sapiens, MCF7, 96 h, Rosiglitazone 75 μM, vs control cells) is 28.5%; in test [2] (Rosiglitazone 75 μM) it was 2.81%.

For the compound 4-hydroxytamoxifen [4-OHT], the “% inhibition of cell proliferation” value is 0.802% in test [1] (4-OHT 2.5 μM, 96 h) and 3.464% in test [1] (4-OHT 5 μM, 96 h). In test [1] (rosiglitazone 10 or 25 μM and/or 4-OHTAM 2.5 or 5 μM, 96 h, FIG. 6A), the “inhibition of cell proliferation (in words)” value is given as “did not produce a significant inhibition”.

As to `CO[C@H]1C[C@@H]2CC[C@@H](C)[C@@](O)(O2)C(=O)C(=O)N2CCCC[C@H]2C(=O)O[C@H]([C@H](C)C[C@@H]2CC[C@@H](O)[C@H](OC)C2)CC(=O)[C@H](C)/C=C(\C)[C@@H](O)[C@@H](OC)C(=O)[C@H](C)C[C@H](C)/C=C/C=C/C=C/1C` [Rapamycin], the inhibition at 0.01 µM in test [1] (Homo sapiens, MCF7, 96 h, Rapamycin 10 nM, vs control cells) amounted to 25%; in test [2] (Rapamycin 10 nM), 12.2%. In addition, the “% inhibition of cell proliferation” value in test [1] (Rapamycin 10 nM, 96 h, vs control cells) is 22.159%.

For orientation: inhibition means the share of the control response that was lost under treatment.
